SMILES strings stand for the structures.

One assay has as its target T1, Cbl-b (Homo sapiens, UniProt Q13191).
T1 construct: biotin (biotinylated)
Description: Cbl-b probe displacement HTRF binding assay. Conditions: 0.4 nM biotinylated Cbl-b, 150 nM BODIPY probe. As to the method:
The affinity with which compounds of the present disclosure bind to Cbl-b was assessed using probe displacement homologous time resolved fluorescence (HTRF) assays. The assays used a BODIPY™ conjugated probe (Example 54 from WO 2020264398) and biotinylated Cbl-b. The assays were performed in assay buffer consisting of 20 mM Hepes, 150 mM NaCl, 0.01% Triton X-100, 0.5 mM TCEP, 0.01% BSA. On the day of the assay, a 20 point, 1:2 master serial dilution of each compound was prepared in DMSO to span a final concentration range of 10 μM to 0 nM. Two hundred nanoliters of diluted compound was added to each well of a 384-well plate. Fifteen microliters of biotinylated—Cbl-b resuspended in assay buffer were added to each well and the plate incubated for 60 minutes at room temperature prior to addition of 5 μL of BODIPY™ probe in assay buffer. Final assay conditions included 0.4 nM of Cbl-b and 150 nM of BODIPY™ probe. After a further 15 minutes of incubation at room temperature, 5 μl of Streptavidin-Terbium cryptate reagent at 5-fold final concentration was added to each well of the 384-well plate. Binding of a probe to Cbl-b results in an increase of HTRF signal. HTRF signal was measured by Envision plate reader, while competition of a compound of the present disclosure with probe results in a decrease of signal. Percentage maximum activity in each test well was calculated based on DMSO (maximum activity, 0% displacement) and no protein control wells (baseline activity, 100% displacement). Binding affinity was determined from a dose response curve fitted using a standard four parameter fit equation. See Table 3 for data for compounds (Cbl-b Binding (IC50)).

For a further assay, the system named is Jurkat cells. Nature of the assay: IL-2 secretion assay in CD3/CD28-activated Jurkat cells (AlphaLISA). The assay is classed as cell-based, human. Conditions: Homo sapiens, CD3/CD28 T Cell Activator, 24 h, IL-2 AlphaLISA. As to the method:
Certain compounds were also evaluated in an IL-2 secretion assay. On the day of the assay, a 16 point, 1:2 master serial dilution of each compound was prepared in Opti-MEM to span a final concentration range of 10 μM to 300 pM. Assays were setup in CORNING® tissue culture-treated 384-well microplates containing 60 nL of each dilution. Jurkat cells grown in RPMI-1640 supplemented with 10% FBS, 1% Glutamax, and 1% Pen/Strep were collected, resuspended in Opti-MEM. 50,000 cells/well and added to the compound plates. After a short spin (1200 rpm for 1 min), the plates were incubated at 37° C. for 1 hour. The cells were activated by adding 15 μL of IMUNOCULT™ Human CD3/CD28 T Cell Activator (STEMCELL Technologies) diluted in Opti-MEM. After 24 h of incubation at 37° C., aliquots of culture supernatants were transferred to OptiPlate-384 (PerkinElmer) microplates. The level of IL-2 secretion in the supernatants was then determined using the IL-2 (human) AlphaLISA Detection Kit (PerkinElmer) according to the manufacturer's recommendations. The AlphaLISA signal was measured using an EnVision plate reader (PerkinElmer). EC50 values were determined by fitting the data to a standard 4-parameter logistic equation. See Table 3 for data for select compounds (IL-2 Secretion (EC50)).

T1 sequence (Q13191 whole entry, species assumed): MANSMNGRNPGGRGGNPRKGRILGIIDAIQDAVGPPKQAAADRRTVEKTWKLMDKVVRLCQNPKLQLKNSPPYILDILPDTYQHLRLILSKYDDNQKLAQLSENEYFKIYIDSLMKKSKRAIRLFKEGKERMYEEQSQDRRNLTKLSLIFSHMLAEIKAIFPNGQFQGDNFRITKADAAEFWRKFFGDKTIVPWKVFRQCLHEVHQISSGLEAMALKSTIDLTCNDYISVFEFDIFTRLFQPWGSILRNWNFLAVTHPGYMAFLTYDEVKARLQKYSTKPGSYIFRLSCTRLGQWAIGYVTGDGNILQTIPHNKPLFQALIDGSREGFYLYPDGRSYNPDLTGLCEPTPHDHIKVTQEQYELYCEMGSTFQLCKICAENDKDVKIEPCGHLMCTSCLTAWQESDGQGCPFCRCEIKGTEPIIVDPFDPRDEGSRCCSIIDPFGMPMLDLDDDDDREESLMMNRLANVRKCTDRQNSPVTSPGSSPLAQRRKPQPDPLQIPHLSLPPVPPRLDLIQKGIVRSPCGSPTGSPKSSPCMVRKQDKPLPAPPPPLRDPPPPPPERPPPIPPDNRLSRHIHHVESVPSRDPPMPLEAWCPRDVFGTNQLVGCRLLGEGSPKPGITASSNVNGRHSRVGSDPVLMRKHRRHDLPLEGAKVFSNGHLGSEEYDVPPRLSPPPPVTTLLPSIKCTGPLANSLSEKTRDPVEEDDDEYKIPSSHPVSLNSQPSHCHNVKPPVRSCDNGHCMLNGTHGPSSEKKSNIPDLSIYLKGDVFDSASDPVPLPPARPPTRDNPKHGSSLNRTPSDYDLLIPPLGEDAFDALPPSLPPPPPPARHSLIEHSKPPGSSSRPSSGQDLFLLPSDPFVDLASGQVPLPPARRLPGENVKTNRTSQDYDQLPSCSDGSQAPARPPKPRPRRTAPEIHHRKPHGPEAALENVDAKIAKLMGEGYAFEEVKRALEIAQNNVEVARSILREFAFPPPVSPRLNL

In turn, `CC(c1cc2c(C3CC3)cn(-c3cc(-c4ccc(C#N)cc4-c4nccn4C)cc(C4CC4)n3)c(=O)c2[nH]1)N1CCC[C@H](C)C1` (mixture of isomers) [Example 100, 4-[2-(2-{1-[(S)-3-methyl-1-piperidyl]ethyl}-4-cyclopropyl-7-oxo-1,6-dihydro-1,6-diaza-6-indenyl)-6-cyclopropyl-4-pyridyl]-3-(1-methyl-2-imidazolyl)benzonitrile] gave an IC50 on Cbl-b of less than 100 nM. In addition, the EC50 in the assay on Jurkat cells was less than 100 nM.

`CC(c1cc2c(S(C)(=O)=O)cn(-c3cc(-c4ccc(C#N)cc4-c4nccn4C)cc(C4CC4)n3)c(=O)c2[nH]1)N1CCC[C@H](C)C1` (mixture of isomers) [Example 101, 4-[2-(2-{1-[(S)-3-methyl-1-piperidyl]ethyl}-4-mesyl-7-oxo-1,6-dihydro-1,6-diaza-6-indenyl)-6-cyclopropyl-4-pyridyl]-3-(1-methyl-2-imidazolyl)benzonitrile] gave a concentration for half-maximal inhibition (IC50) at Cbl-b of less than 100 nM. The same molecule gave an EC50 in the assay with Jurkat cells of less than 100 nM.

On Cbl-b, `CC(c1cc2c(S(C)(=O)=O)cn(-c3cc(-c4ccc(C#N)cc4-c4nccn4C)cc(C4CC4)n3)c(=O)c2[nH]1)N1CCO[C@H](C)C1` (mixture of isomers) [Example 102, 4-[2-(2-{1-[(R)-2-methyl-4-morpholinyl]ethyl}-4-mesyl-7-oxo-1,6-dihydro-1,6-diaza-6-indenyl)-6-cyclopropyl-4-pyridyl]-3-(1-methyl-2-imidazolyl)benzonitrile] returned an IC50 of less than 100 nM. Besides, the half-maximal effective concentration (EC50) in the assay with Jurkat cells is less than 100 nM.

On Cbl-b, `C[C@H]1CCCN(Cc2cc3c(C4CC4)cn(-c4cc(-c5ccc(C#N)cc5-c5nncn5C)cc(Cl)n4)c(=O)c3[nH]2)C1` [Example 1, 4-[2-(2-{[(S)-3-methyl-1-piperidyl]methyl}-4-cyclopropyl-7-oxo-1,6-dihydro-1,6-diaza-6-indenyl)-6-chloro-4-pyridyl]-3-(4-methyl-4H-1,2,4-triazol-3-yl)benzonitrile] gave an IC50 of less than 100 nM. Further, in the assay with Jurkat cells, the EC50 is less than 100 nM.

At Cbl-b, `C[C@H]1CCCN(Cc2cc3c(C4CC4)cn(-c4cc(-c5ccc(C#N)cc5-c5nncn5C)cc(C5CC5)n4)c(=O)c3[nH]2)C1` [Example 2, 4-[2-(2-{[(S)-3-methyl-1-piperidyl]methyl}-4-cyclopropyl-7-oxo-1,6-dihydro-1,6-diaza-6-indenyl)-6-cyclopropyl-4-pyridyl]-3-(4-methyl-4H-1,2,4-triazol-3-yl)benzonitrile] came in with a 50% inhibitory concentration (IC50) of less than 100 nM. Further, in the assay with Jurkat cells, the half-maximal effective concentration (EC50) is less than 100 nM.

At Cbl-b, `CNCCN(C)c1cc(-c2ccc(C#N)cc2-c2nncn2C)cc(-n2cc(C3CC3)c3cc(CN4CCC[C@H](C)C4)[nH]c3c2=O)n1` [Example 3, 4-(2-{N-methyl[2-(methylamino)ethyl]amino}-6-(2-{[(S)-3-methyl-1-piperidyl]methyl}-4-cyclopropyl-7-oxo-1,6-dihydro-1,6-diaza-6-indenyl)-4-pyridyl)-3-(4-methyl-4H-1,2,4-triazol-3-yl)benzonitrile] gave an IC50 of 100 to 1000 nM. Besides, the concentration giving a half-maximal response (EC50) in the assay on Jurkat cells lay in the range of 1000 to 5000 nM.

On to `Cn1cnnc1-c1cc(C#N)ccc1-c1cc(C2CC2)nc(-n2cc(C3CC3)c3cc[nH]c3c2=O)c1` [Example 4], for which the IC50 on Cbl-b lay in the range of 1000 to 5000 nM. For the same molecule, the EC50 in the assay on Jurkat cells is greater than 5000 nM.

For the molecule `COc1ccc(-c2cc(C3CC3)nc(-n3cc(C4CC4)c4cc(CN5CCC[C@H](C)C5)[nH]c4c3=O)c2)c(-c2nncn2C)c1` [Example 5, 2-{[(S)-3-Methyl-1-piperidyl]methyl}-4-cyclopropyl-6-{6-cyclopropyl-4-[4-methoxy-2-(4-methyl-4H-1,2,4-triazol-3-yl)phenyl]-2-pyridyl}-1,6-dihydro-1,6-diaza-7-indenone], the IC50 on Cbl-b is less than 100 nM. In addition, the 50% effective concentration (EC50) in the assay on Jurkat cells was less than 100 nM.

Consider `C[C@H]1CCCN(Cc2cc3c(C4CC4)cn(-c4cc(-c5ccc(F)cc5-c5nncn5C)cc(Cl)n4)c(=O)c3[nH]2)C1` [Example 6, 2-{1[(S)-3-Methyl-1-piperidyl]methyl}-6-{6-chloro-4-[4-fluoro-2-(4-methyl-4H-1,2,4-triazol-3-yl)phenyl]-2-pyridyl}-4-cyclopropyl-1,6-dihydro-1,6-diaza-7-indenone], for which, on Cbl-b, the half-inhibitory concentration (IC50) was less than 100 nM. The molecule also showed an EC50 in the assay on Jurkat cells of less than 100 nM.

`C[C@H]1CCCN(Cc2cc3c(C4CC4)cn(-c4cc(-c5ccc(F)cc5-c5nncn5C)cc(O)n4)c(=O)c3[nH]2)C1` [Example 7, 2-{[(S)-3-methyl-1-piperidyl]methyl}-4-cyclopropyl-6-{4-[4-fluoro-2-(4-methyl-4H-1,2,4-triazol-3-yl)phenyl]-6-hydroxy-2-pyridyl}-1,6-dihydro-1,6-diaza-7-indenone] came in with an IC50 at Cbl-b of 100 to 1000 nM. The EC50 in the assay on Jurkat cells lay within 1000 to 5000 nM.

`C[C@H]1CCCN(Cc2cc3c(C4CC4)cn(-c4cc(-c5ccc(F)cc5-c5nncn5C)cc(C5CC5)n4)c(=O)c3[nH]2)C1` [Example 10, 2-{[(S)-3-Methyl-1-piperidyl]methyl}-4-cyclopropyl-6-{6-cyclopropyl-4-[4-fluoro-2-(4-methyl-4H-1,2,4-triazol-3-yl)phenyl]-2-pyridyl}-1,6-dihydro-1,6-diaza-7-indenone]: the half-maximal inhibitory concentration (IC50) on Cbl-b is less than 100 nM.

Regarding `C[C@H]1CCCN(Cc2cc3c(C4CC4)cn(-c4cc(-c5ccc(C#N)cc5-c5nccn5C)cc(C5CC5)n4)c(=O)c3[nH]2)C1` [Example 13, 4-[2-(2-{[(S)-3-methyl-1-piperidyl]methyl}-4-cyclopropyl-7-oxo-1,6-dihydro-1,6-diaza-6-indenyl)-6-cyclopropyl-4-pyridyl]-3-(1-methyl-2-imidazolyl)benzonitrile], the concentration for half-maximal inhibition (IC50) on Cbl-b was less than 100 nM.

At Cbl-b, `CO[C@@H](C)CNCc1nc2c(C(F)(F)F)cn(-c3cc(-c4ccc(F)cc4-c4ncoc4C)cc(C4CC4)n3)c(=O)c2[nH]1` [Example 49, 2-{[(S)-2-methoxypropylamino]methyl}-5-{6-cyclopropyl-4-[4-fluoro-2-(5-methyl-1,3-oxazol-4-yl)phenyl]-2-pyridyl}-7-(trifluoromethyl)-3,5-dihydro-1,3,5-triaza-4-indenone] showed an IC50 of less than 100 nM.

For the molecule `COCCNCc1cc2ncn(-c3cc(-c4ccc(C#N)cc4-c4ncoc4C)cc(C4CC4)n3)c(=O)c2[nH]1` [Example 72, 4-(6-cyclopropyl-2-{2-[(2-methoxyethylamino)methyl]-7-oxo-1,6-dihydro-1,4,6-triaza-6-indenyl}-4-pyridyl)-3-(5-methyl-1,3-oxazol-4-yl)benzonitrile], on Cbl-b, the IC50 is less than 100 nM.

`COCCNCc1cc2ncn(-c3cc(-c4ccc(F)cc4-c4ncoc4C)cc(C4CC4)n3)c(=O)c2[nH]1` [Example 78, 6-{6-cyclopropyl-4-[4-fluoro-2-(5-methyl-1,3-oxazol-4-yl)phenyl]-2-pyridyl}-2-[(2-methoxyethylamino)methyl]-1,6-dihydro-1,4,6-triaza-7-indenone] registered an IC50 on Cbl-b of less than 100 nM.

With `COC[C@H](C)NCc1cc2ncn(-c3cc(-c4ccc(F)cc4-c4ncoc4C)cc(C4CC4)n3)c(=O)c2[nH]1` [Example 79, 2-{[(S)-2-methoxy-1-methylethylamino]methyl}-6-{6-cyclopropyl-4-[4-fluoro-2-(5-methyl-1,3-oxazol-4-yl)phenyl]-2-pyridyl}-1,6-dihydro-1,4,6-triaza-7-indenone], the IC50 at Cbl-b was less than 100 nM.

`CCOCCNCc1cc2ncn(-c3cc(-c4ccc(F)cc4-c4ncoc4C)cc(C4CC4)n3)c(=O)c2[nH]1` [Example 80, 6-{6-cyclopropyl-4-[4-fluoro-2-(5-methyl-1,3-oxazol-4-yl)phenyl]-2-pyridyl}-2-[(2-ethoxyethylamino)methyl]-1,6-dihydro-1,4,6-triaza-7-indenone]: the IC50 on Cbl-b was less than 100 nM.

At Cbl-b, `CO[C@@H](C)CN(C)Cc1cc2ncn(-c3cc(-c4ccc(F)cc4-c4nc(C#N)cn4C)cc(C4CC4)n3)c(=O)c2[nH]1` [Example 113, 2-[2-[2-cyclopropyl-6-[6-[[[(2S)-2-methoxypropyl]-methylamino]methyl]-4-oxo-5H-pyrrolo[3,2-d]pyrimidin-3-yl]pyridin-4-yl]-5-fluorophenyl]-1-methyl-imidazole-4-carbonitrile] yielded an IC50 of less than 100 nM.

(Values after US20250011318A1 (ARCUS BIOSCIENCES, INC., priority 2023, published 2025).)
